Results: patent publication US11884686B2, “Chelate compounds” (priority 2016, dated 2024)
Entries after “also recorded” stand apart in the source; their conditions may differ.

Assays:
[1] = In vivo 54Mn biodistribution study in rats; settings: rat; for % ID retained activity, Brain / % ID retained activity, Bladder / % ID retained activity, Blood / % ID retained activity, Heart / % ID retained activity, Kidney / % ID retained activity, Liver / % ID retained activity, Lungs / % ID retained activity, Muscle / % ID retained activity, Olfactory Bulb / % ID retained activity, Skin / % ID retained activity, Spleen / % ID retained activity, Tibia/Fibula / % ID retained activity, Femur / % ID retained activity, Pituitary Gland: 7 days post single iv 0.62 mmol/kg, LoD 0.002% ID (Prior Art, Chelate 4), 0.005% ID (Chelate 3); for % ID retained activity, Brain: ~30 μCi 54Mn; for in vivo stability from biodistribution profile: 7 days post single iv administration
Experimental: ^54Mn labeled chelates for biodistribution studies were prepared using the following method. To a 3 mL glass vial fitted with a magnetic stir bar was added the respective manganese containing chelate (1 mg) and 1.0 M ammonium formate, pH=4 (0.5 mL) (pH=5 for prior art Mn Chelate). ^54MnCl2 in 1.0 M HCl (˜500 μCi) was then added and the resulting solution was heated at 40° C. for 16 h. The resulting solution was purified via preparative HPLC to remove unchelated Mn. The radioactive fraction was collected and evaporated to dryness in vacuo. The radioactive residue was taken up in water containing non-radioactive Mn chelate (0.310 M) such that ˜30 μCi of radioactivity was formulated in a dose of 0.620 mmol Mn/kg with an injection volume of 2 mL/kg.
The experimental protocol conformed to the Guide for the Care and Use of Laboratory Animals and was approved by the IACUC at General Electric Global Research (Niskayuna, NY). Female Sprague-Dawley rats (130-150 g; Charles River Laboratories; Massachusetts; USA) were housed in standard cages, provided with ad libitum access to standard commercial food and water, and were maintained on an alternating 12-hr light-dark cycle in rooms with controlled temperature and humidity. Prior to injection of ^54Mn labelled chelates, rats were anesthetized via inhaled 3% Isoflurane (Piramal, NDC 66794-013-25; EZ-Anesthesia EZ700 Isoflurane Vaporizer, S/N 107). The injection site was prepped with alcohol wipes and a temporary 27 Ga catheter (Surflo SROX2419V) was placed in a tail vein. 30 μCi (0.74 MBq) of ^54Mn labelled chelate formulated with respective non-radioactive Mn(II) based chelate was dosed at 0.620 mmol non-radioactive Mn chelate/kg at an injection volume of 2 m L/kg was injected at a rate of 1 mL/min. Following injection animals were individually housed in wire bottom cages lined with filter paper until first urine void was collected. The rats were then cohoused in standard long term caging. 7 days post injection, the animals were sacrificed by CO2 immersion and organs and tissues of interest were removed and assayed for radioactivity using a Wizard 2480 gamma counter (Perkin Elmer, Beaconsfield, UK).
Naïve rats (Charles River Laboratories; Massachusetts; USA) received a single dose of 0.620 mmol/kg (approximately 30 μCi, 0.740 MBq) of test item via tail vein by injection. Additionally, one group of animals received osmolality matched saline (concentrated NaCl for injection: APP Pharmaceuticals part #NDC 63323-187-30 Lot #6008656 mixed with Sterile Water for Injection: Hospira part #NDC 0409-7990-09 Lot #49-396-DKas) as negative control (Table 1). After sacrifice, the organs and tissues were removed and assayed for residual radioactivity (i.e. ^54Mn organ retention) 7 days post single administration.

1H NMRD profiles = assay type: physicochemical; settings: 0.01 to 80 MHz, pH 6.9
Experimental: Both the longitudinal and transverse relaxation times were measured in human serum (BioreclamationIVT, Cat #HMSRM-M) to reflect the efficiency of the Mn(II) based chelates in an environment close to physiological. The relaxivity assessment was carried out at a concentration ranging from 5 to 0 mM Mn(II), at 40° C. using a Minispec Mq benchtop NMR relaxometer (Bruker Instruments, Rheinstetten, Germany) operating at 60 MHz (1.4 T) with an inversion recovery pulse sequence. The longitudinal and transverse relaxivities of the complexes (e.g., r1 and r2 respectively) were calculated by plotting the reciprocal of their relaxation time versus the manganese concentration as determined via ICP-MS (Spectro Arcos FHS12, S/N 10003910 or S/N 12006120) for each Mn(II) based chelates. The dependence of T1 by B0 (i.e., magnetic field) applied was assessed via the acquisition of ^1H Nuclear Magnetic Relaxation Dispersion (NMRD) profiles. […] The temperature was monitored by a VTC91 temperature control unit and maintained by a gas flow. The temperature was determined by previous calibration with a Pt resistance temperature probe. High field relaxivities were measured on a Bruker AVANCE NMR spectrometer at 400 MHz. […]

With `CN(C[C@H](O)[C@@H](O)[C@H](O)[C@H](O)CO)C(=O)CCCN1CCN2Cc3cccc(n3)CN(CC1)C(CCC(=O)N(C)C[C@H](O)[C@@H](O)[C@H](O)[C@H](O)CO)C(=O)[O][Mn][O]C(=O)C2CCC(=O)N(C)C[C@H](O)[C@@H](O)[C@H](O)[C@H](O)CO` (stereo partly shown) [Mn Chelate 3] the “% ID retained activity, Brain” value [1] was “within endogenous level variability and LOD”, the “% ID retained activity, Bladder” value [1] was “≤LOD” and the “% ID retained activity, Blood” value [1] was “≤LOD”. The “% ID retained activity, Heart” value [1] was “≤LOD”, the “% ID retained activity, Kidney” value [1] was 0.026 ± 0.005% ID and the “% ID retained activity, Liver” value [1] was 0.091 ± 0.017% ID. The “% ID retained activity, Lungs” value [1] was “≤LOD”, the “% ID retained activity, Muscle” value [1] was “≤LOD” and the “% ID retained activity, Olfactory Bulb” value [1] was “≤LOD”. For the same compound, the “% ID retained activity, Skin” value [1] was “≤LOD”, the “% ID retained activity, Spleen” value [1] was “≤LOD” and the “% ID retained activity, Tibia/Fibula” value [1] was “≤LOD”. The “in vivo stability from biodistribution profile” value [1] was “improved stability compared to the prior art Mn Chelate”.

In the case of `CN1CCN2Cc3cccc(n3)CN(CC1)C(CCC(=O)N(C)C[C@H](O)[C@@H](O)[C@H](O)[C@H](O)CO)C(=O)[O][Mn][O]C(=O)C2CCC(=O)N(C)C[C@H](O)[C@@H](O)[C@H](O)[C@H](O)CO` (stereo partly shown) [Mn Chelate 4], the “% ID retained activity, Bladder” value [1] is reported as “≤LOD”, the “% ID retained activity, Blood” value [1] is reported as “≤LOD” and the “% ID retained activity, Femur” value [1] is reported as “≤LOD”. The “% ID retained activity, Heart” value [1] was “≤LOD”, the “% ID retained activity, Kidney” value [1] was 0.038 ± 0.017% ID and the “% ID retained activity, Liver” value [1] was 0.075 ± 0.011% ID. For the same compound, the “% ID retained activity, Lungs” value [1] was “≤LOD”, the “% ID retained activity, Muscle” value [1] was “≤LOD” and the “% ID retained activity, Olfactory Bulb” value [1] was “≤LOD”. For the same compound, the “% ID retained activity, Pituitary Gland” value [1] was “≤LOD”, the “% ID retained activity, Skin” value [1] was “≤LOD” and the “% ID retained activity, Spleen” value [1] was “≤LOD”. For the same compound, the “% ID retained activity, Tibia/Fibula” value [1] was “≤LOD”, the “in vivo stability from biodistribution profile” value [1] was “improved stability compared to the prior art Mn Chelate” and the “1H NMRD profile” value (1H NMRD profiles) was “only one dispersion in the profile around 1 MHz; also recorded: small r1 hump in the frequency region between 60 and 80 MHz”.

For `CN1CCN2CC(=O)[O][Mn][O]C(=O)CN(CC1)Cc1cccc(n1)C2` [Prior Art Mn Chelate, reference compound], the “% ID retained activity, Brain” value [1] was 0.007 ± 0.002% ID, the “% ID retained activity, Bladder” value [1] was “≤LOD” and the “% ID retained activity, Blood” value [1] was “≤LOD”. The “% ID retained activity, Femur” value [1] was 0.003 ± 0.001% ID, the “% ID retained activity, Heart” value [1] was “≤LOD” and the “% ID retained activity, Kidney” value [1] was 0.012 ± 0.002% ID. The “% ID retained activity, Liver” value [1] was 0.072 ± 0.017% ID, the “% ID retained activity, Lungs” value [1] was “≤LOD” and the “% ID retained activity, Muscle” value [1] was “≤LOD”. For the same compound, the “% ID retained activity, Olfactory Bulb” value [1] was “≤LOD”, the “% ID retained activity, Pituitary Gland” value [1] was “≤LOD” and the “% ID retained activity, Skin” value [1] was “≤LOD”. The “% ID retained activity, Spleen” value [1] was “≤LOD”, the “% ID retained activity, Tibia/Fibula” value [1] was 0.002 ± 0.000% ID and the “1H NMRD profile” value (1H NMRD profiles) was “only one dispersion in the profile around 1 MHz”.
